Results published in ChEMBL document CHEMBL3804811 (J Med Chem, 2016).
In brackets after ≈: the same amount, converted by molar mass.

System: not listed separately
Experiment: Intrinsic clearance in human liver microsomes at […] preincubated for 5 mins followed by NADPH addition measured after 5 to 30 mins by LC-MS/MS analysis
Type: ADME
Details: read-out: CLH

Structure (SMILES) | CLint scaled [L/h/kg]
O=C(Nc1n[nH]c2ccc(Cc3cc(F)cc(F)c3)cc12)c1ccc(N2CCNCC2)cc1NC1CCOCC1 | 0.45
CN1CCN(c2ccc(C(=O)Nc3n[nH]c4ccc(Cc5cc(F)cc(F)c5)cc34)c(NCCF)c2)CC1 | 1.44
CN1CCC(Oc2ccc(C(=O)Nc3n[nH]c4ccc(Cc5cc(F)cc(F)c5)cc34)c(NC3CCOCC3)c2)CC1 | 0.72

System: not listed separately
Experiment: Antiproliferative activity against human KARPAS299 cells incubated for 72 hrs by cell titer-glo assay
Details: KARPAS-299, 72 h

Structure (SMILES) | IC50 [µM]
O=C(Nc1n[nH]c2ccc(Cc3cc(F)cc(F)c3)cc12)c1ccc(N2CCNCC2)cc1NC1CCOCC1 | 0.013
CN1CCN(c2ccc(C(=O)Nc3n[nH]c4ccc(Cc5cc(F)cc(F)c5)cc34)c(NCCF)c2)CC1 | 0.049
CN1CCC(Oc2ccc(C(=O)Nc3n[nH]c4ccc(Cc5cc(F)cc(F)c5)cc34)c(NC3CCOCC3)c2)CC1 | 0.043

System: not listed separately
Experiment: AUC (infinity) in Harlan nu/nu mouse at 10 mg/kg, po administered as single dose by LC-MS/MS analysis
Type: ADME, organism-based
Design: dose 10 mg/kg, route oral, time infinity
Details: in vivo

Structure (SMILES) | AUC(0-inf) [µM·h]
O=C(Nc1n[nH]c2ccc(Cc3cc(F)cc(F)c3)cc12)c1ccc(N2CCNCC2)cc1NC1CCOCC1 | 1.33
CN1CCN(c2ccc(C(=O)Nc3n[nH]c4ccc(Cc5cc(F)cc(F)c5)cc34)c(NCCF)c2)CC1 | 31.5
CN1CCC(Oc2ccc(C(=O)Nc3n[nH]c4ccc(Cc5cc(F)cc(F)c5)cc34)c(NC3CCOCC3)c2)CC1 | 11

System: not listed separately
Experiment: Solubility of compound at pH 7 buffer
Type: physicochemical
Details: not given

Structure (SMILES) | solubility [µM]
O=C(Nc1n[nH]c2ccc(Cc3cc(F)cc(F)c3)cc12)c1ccc(N2CCNCC2)cc1NC1CCOCC1 | 103 (≈ 56.3 µg/mL)
CN1CCN(c2ccc(C(=O)Nc3n[nH]c4ccc(Cc5cc(F)cc(F)c5)cc34)c(NCCF)c2)CC1 | 16 (≈ 8.36 µg/mL)
CN1CCC(Oc2ccc(C(=O)Nc3n[nH]c4ccc(Cc5cc(F)cc(F)c5)cc34)c(NC3CCOCC3)c2)CC1 | 59 (≈ 34 µg/mL)

System: not listed separately
Experiment: Tmax in Harlan nu/nu mouse at 10 mg/kg, po administered as single dose by LC-MS/MS analysis
Type: ADME, organism-based
Details: in vivo

Structure (SMILES) | Tmax [h]
O=C(Nc1n[nH]c2ccc(Cc3cc(F)cc(F)c3)cc12)c1ccc(N2CCNCC2)cc1NC1CCOCC1 | 6
CN1CCN(c2ccc(C(=O)Nc3n[nH]c4ccc(Cc5cc(F)cc(F)c5)cc34)c(NCCF)c2)CC1 | 4.33
CN1CCC(Oc2ccc(C(=O)Nc3n[nH]c4ccc(Cc5cc(F)cc(F)c5)cc34)c(NC3CCOCC3)c2)CC1 | 6

System: not listed separately
Experiment: Apparent permeability from basolateral to apical side in human Caco2 cells at 2.5 mg/ml after 2 hrs by reversed-phase HPLC method
Type: ADME, cell-based
Details: Caco-2

Structure (SMILES) | Papp B→A at 2 h, 2.5 mg/ml [nm/s]
O=C(Nc1n[nH]c2ccc(Cc3cc(F)cc(F)c3)cc12)c1ccc(N2CCNCC2)cc1NC1CCOCC1 | 45
CN1CCN(c2ccc(C(=O)Nc3n[nH]c4ccc(Cc5cc(F)cc(F)c5)cc34)c(NCCF)c2)CC1 | 15
CN1CCC(Oc2ccc(C(=O)Nc3n[nH]c4ccc(Cc5cc(F)cc(F)c5)cc34)c(NC3CCOCC3)c2)CC1 | 20

System: not listed separately
Experiment: Half life in Harlan nu/nu mouse at 10 mg/kg, po administered as single dose by LC-MS/MS analysis
Type: ADME, organism-based
Details: in vivo

Structure (SMILES) | half-life [h]
O=C(Nc1n[nH]c2ccc(Cc3cc(F)cc(F)c3)cc12)c1ccc(N2CCNCC2)cc1NC1CCOCC1 | 9.63
CN1CCN(c2ccc(C(=O)Nc3n[nH]c4ccc(Cc5cc(F)cc(F)c5)cc34)c(NCCF)c2)CC1 | 9.86
CN1CCC(Oc2ccc(C(=O)Nc3n[nH]c4ccc(Cc5cc(F)cc(F)c5)cc34)c(NC3CCOCC3)c2)CC1 | 4.08

System: not listed separately
Experiment: Half life in Harlan nu/nu mouse at 10 mg/kg, iv administered as single dose by LC-MS/MS analysis
Type: ADME, organism-based
Details: in vivo

Structure (SMILES) | half-life [h]
O=C(Nc1n[nH]c2ccc(Cc3cc(F)cc(F)c3)cc12)c1ccc(N2CCNCC2)cc1NC1CCOCC1 | 4.76
CN1CCN(c2ccc(C(=O)Nc3n[nH]c4ccc(Cc5cc(F)cc(F)c5)cc34)c(NCCF)c2)CC1 | 5.92
CN1CCC(Oc2ccc(C(=O)Nc3n[nH]c4ccc(Cc5cc(F)cc(F)c5)cc34)c(NC3CCOCC3)c2)CC1 | 4.94

System: not listed separately
Experiment: Apparent permeability from apical to basolateral side in human Caco2 cells at 2.5 mg/ml after 2 hrs by reversed-phase HPLC method
Type: ADME, cell-based
Details: Caco-2

Structure (SMILES) | Papp A→B at 2 h, 2.5 mg/ml [nm/s]
O=C(Nc1n[nH]c2ccc(Cc3cc(F)cc(F)c3)cc12)c1ccc(N2CCNCC2)cc1NC1CCOCC1 | 6
CN1CCN(c2ccc(C(=O)Nc3n[nH]c4ccc(Cc5cc(F)cc(F)c5)cc34)c(NCCF)c2)CC1 | 24
CN1CCC(Oc2ccc(C(=O)Nc3n[nH]c4ccc(Cc5cc(F)cc(F)c5)cc34)c(NC3CCOCC3)c2)CC1 | 3

System: not listed separately
Experiment: Oral bioavailability in Harlan nu/nu mouse at 10 mg/kg administered as single dose by LC-MS/MS analysis
Type: ADME, organism-based
Details: in vivo

Structure (SMILES) | bioavailability [%]
O=C(Nc1n[nH]c2ccc(Cc3cc(F)cc(F)c3)cc12)c1ccc(N2CCNCC2)cc1NC1CCOCC1 | 2.9
CN1CCN(c2ccc(C(=O)Nc3n[nH]c4ccc(Cc5cc(F)cc(F)c5)cc34)c(NCCF)c2)CC1 | 99
CN1CCC(Oc2ccc(C(=O)Nc3n[nH]c4ccc(Cc5cc(F)cc(F)c5)cc34)c(NC3CCOCC3)c2)CC1 | 29.3

System: not listed separately
Experiment: Intrinsic clearance in rat hepatocytes at […] after 10 to 90 mins by LC-MS/MS analysis
Type: ADME, cell-based, Hepatocyte
Details: read-out: CLH

Structure (SMILES) | CLint scaled [L/h/kg]
O=C(Nc1n[nH]c2ccc(Cc3cc(F)cc(F)c3)cc12)c1ccc(N2CCNCC2)cc1NC1CCOCC1 | 3.12
CN1CCN(c2ccc(C(=O)Nc3n[nH]c4ccc(Cc5cc(F)cc(F)c5)cc34)c(NCCF)c2)CC1 | 1.08
CN1CCC(Oc2ccc(C(=O)Nc3n[nH]c4ccc(Cc5cc(F)cc(F)c5)cc34)c(NC3CCOCC3)c2)CC1 | 2.94

System: not listed separately
Experiment: Clearance in Harlan nu/nu mouse at 10 mg/kg, iv administered as single dose by LC-MS/MS analysis
Type: ADME, organism-based
Details: in vivo

Structure (SMILES) | clearance [L/h/kg]
O=C(Nc1n[nH]c2ccc(Cc3cc(F)cc(F)c3)cc12)c1ccc(N2CCNCC2)cc1NC1CCOCC1 | 0.421
CN1CCN(c2ccc(C(=O)Nc3n[nH]c4ccc(Cc5cc(F)cc(F)c5)cc34)c(NCCF)c2)CC1 | 0.702
CN1CCC(Oc2ccc(C(=O)Nc3n[nH]c4ccc(Cc5cc(F)cc(F)c5)cc34)c(NC3CCOCC3)c2)CC1 | 0.49

System: not listed separately
Experiment: Cmax in Harlan nu/nu mouse at 10 mg/kg, po administered as single dose by LC-MS/MS analysis
Type: ADME, organism-based
Design: dose 10 mg/kg, route oral
Details: in vivo

Structure (SMILES) | Cmax [µM]
O=C(Nc1n[nH]c2ccc(Cc3cc(F)cc(F)c3)cc12)c1ccc(N2CCNCC2)cc1NC1CCOCC1 | 0.081
CN1CCN(c2ccc(C(=O)Nc3n[nH]c4ccc(Cc5cc(F)cc(F)c5)cc34)c(NCCF)c2)CC1 | 1.88
CN1CCC(Oc2ccc(C(=O)Nc3n[nH]c4ccc(Cc5cc(F)cc(F)c5)cc34)c(NC3CCOCC3)c2)CC1 | 0.8

Target: ALK tyrosine kinase receptor (Homo sapiens, UniProt Q9UM73)
Details: not given

ALK tyrosine kinase receptor, sequence (Q9UM73 whole entry): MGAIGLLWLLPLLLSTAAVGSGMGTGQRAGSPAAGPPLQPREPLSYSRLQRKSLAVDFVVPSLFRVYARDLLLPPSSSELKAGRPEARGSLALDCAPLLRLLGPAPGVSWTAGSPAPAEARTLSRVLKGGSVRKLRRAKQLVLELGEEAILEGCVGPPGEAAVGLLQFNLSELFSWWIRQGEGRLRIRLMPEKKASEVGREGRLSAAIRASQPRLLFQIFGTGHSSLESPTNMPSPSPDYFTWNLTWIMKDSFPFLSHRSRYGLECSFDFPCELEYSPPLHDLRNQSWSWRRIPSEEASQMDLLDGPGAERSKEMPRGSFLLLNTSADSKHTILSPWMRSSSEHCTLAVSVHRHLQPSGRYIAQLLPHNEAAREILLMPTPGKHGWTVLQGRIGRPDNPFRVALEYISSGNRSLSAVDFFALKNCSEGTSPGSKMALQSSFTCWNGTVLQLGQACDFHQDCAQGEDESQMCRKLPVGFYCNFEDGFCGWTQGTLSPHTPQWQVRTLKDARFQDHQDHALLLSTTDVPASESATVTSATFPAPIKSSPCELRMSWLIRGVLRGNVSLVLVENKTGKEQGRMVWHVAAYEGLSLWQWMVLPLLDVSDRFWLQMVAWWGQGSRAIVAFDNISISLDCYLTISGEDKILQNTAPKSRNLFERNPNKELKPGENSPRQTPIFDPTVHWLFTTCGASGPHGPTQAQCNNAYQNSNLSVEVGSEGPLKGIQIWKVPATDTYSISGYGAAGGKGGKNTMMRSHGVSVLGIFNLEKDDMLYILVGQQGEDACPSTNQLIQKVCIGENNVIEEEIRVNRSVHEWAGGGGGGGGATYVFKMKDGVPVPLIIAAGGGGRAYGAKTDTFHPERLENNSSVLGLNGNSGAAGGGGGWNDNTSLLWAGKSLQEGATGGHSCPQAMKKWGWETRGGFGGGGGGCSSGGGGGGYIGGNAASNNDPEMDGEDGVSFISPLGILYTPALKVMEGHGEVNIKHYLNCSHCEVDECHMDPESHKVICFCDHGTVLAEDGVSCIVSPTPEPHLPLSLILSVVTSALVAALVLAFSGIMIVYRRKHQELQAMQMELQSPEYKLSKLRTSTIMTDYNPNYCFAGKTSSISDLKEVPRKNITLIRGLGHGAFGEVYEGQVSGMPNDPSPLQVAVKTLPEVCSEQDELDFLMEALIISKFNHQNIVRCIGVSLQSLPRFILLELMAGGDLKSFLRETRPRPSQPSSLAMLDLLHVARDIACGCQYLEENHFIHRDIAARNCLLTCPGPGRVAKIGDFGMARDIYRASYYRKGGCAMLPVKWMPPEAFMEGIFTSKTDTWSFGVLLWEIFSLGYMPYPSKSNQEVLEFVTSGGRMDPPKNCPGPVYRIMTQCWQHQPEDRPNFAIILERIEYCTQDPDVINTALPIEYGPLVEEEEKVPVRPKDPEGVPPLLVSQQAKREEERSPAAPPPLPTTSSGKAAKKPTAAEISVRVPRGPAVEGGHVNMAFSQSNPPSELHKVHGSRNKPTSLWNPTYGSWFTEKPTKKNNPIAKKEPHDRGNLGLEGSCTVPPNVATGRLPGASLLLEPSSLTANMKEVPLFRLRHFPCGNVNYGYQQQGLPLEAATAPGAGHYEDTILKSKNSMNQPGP

Structure (SMILES) | IC50 [µM]
O=C(Nc1n[nH]c2ccc(Cc3cc(F)cc(F)c3)cc12)c1ccc(N2CCNCC2)cc1NC1CCOCC1 | 0.003
CN1CCN(c2ccc(C(=O)Nc3n[nH]c4ccc(Cc5cc(F)cc(F)c5)cc34)c(NCCF)c2)CC1 | 0.014
CN1CCC(Oc2ccc(C(=O)Nc3n[nH]c4ccc(Cc5cc(F)cc(F)c5)cc34)c(NC3CCOCC3)c2)CC1 | 0.009

System: not listed separately
Experiment: Cmax in Harlan nu/nu mouse at 10 mg/kg, iv administered as single dose by LC-MS/MS analysis
Type: ADME, organism-based
Design: dose 10 mg/kg, route intravenous
Details: in vivo

Structure (SMILES) | Cmax [µM]
O=C(Nc1n[nH]c2ccc(Cc3cc(F)cc(F)c3)cc12)c1ccc(N2CCNCC2)cc1NC1CCOCC1 | 40.5
CN1CCN(c2ccc(C(=O)Nc3n[nH]c4ccc(Cc5cc(F)cc(F)c5)cc34)c(NCCF)c2)CC1 | 7.58
CN1CCC(Oc2ccc(C(=O)Nc3n[nH]c4ccc(Cc5cc(F)cc(F)c5)cc34)c(NC3CCOCC3)c2)CC1 | 6.93

Target: Insulin receptor (Homo sapiens, UniProt P06213)
Experiment: Inhibition of IR (unknown origin) in presence of gamma33-ATP
Details: not given

Insulin receptor, sequence (P06213 28-758 limits assumed): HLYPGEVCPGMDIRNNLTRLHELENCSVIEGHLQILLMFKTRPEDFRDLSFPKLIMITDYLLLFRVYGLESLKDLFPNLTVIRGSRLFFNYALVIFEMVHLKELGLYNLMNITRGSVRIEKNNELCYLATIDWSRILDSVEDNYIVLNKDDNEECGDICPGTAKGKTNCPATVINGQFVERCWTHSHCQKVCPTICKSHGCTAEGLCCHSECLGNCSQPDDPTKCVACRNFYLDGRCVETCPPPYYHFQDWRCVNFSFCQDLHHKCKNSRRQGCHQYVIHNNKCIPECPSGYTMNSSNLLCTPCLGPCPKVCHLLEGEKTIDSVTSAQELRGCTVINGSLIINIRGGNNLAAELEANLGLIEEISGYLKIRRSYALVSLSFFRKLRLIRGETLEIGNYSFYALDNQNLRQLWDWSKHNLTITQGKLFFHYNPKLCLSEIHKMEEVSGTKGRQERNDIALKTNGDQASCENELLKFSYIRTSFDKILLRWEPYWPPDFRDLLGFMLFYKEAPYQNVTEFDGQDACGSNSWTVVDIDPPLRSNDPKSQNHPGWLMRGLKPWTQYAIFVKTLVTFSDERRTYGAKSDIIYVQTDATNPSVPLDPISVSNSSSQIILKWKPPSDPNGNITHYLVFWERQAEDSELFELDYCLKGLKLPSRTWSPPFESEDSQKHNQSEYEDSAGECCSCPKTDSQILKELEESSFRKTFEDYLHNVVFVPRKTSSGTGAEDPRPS
Insulin receptor, sequence (P06213 763-1382 limits assumed): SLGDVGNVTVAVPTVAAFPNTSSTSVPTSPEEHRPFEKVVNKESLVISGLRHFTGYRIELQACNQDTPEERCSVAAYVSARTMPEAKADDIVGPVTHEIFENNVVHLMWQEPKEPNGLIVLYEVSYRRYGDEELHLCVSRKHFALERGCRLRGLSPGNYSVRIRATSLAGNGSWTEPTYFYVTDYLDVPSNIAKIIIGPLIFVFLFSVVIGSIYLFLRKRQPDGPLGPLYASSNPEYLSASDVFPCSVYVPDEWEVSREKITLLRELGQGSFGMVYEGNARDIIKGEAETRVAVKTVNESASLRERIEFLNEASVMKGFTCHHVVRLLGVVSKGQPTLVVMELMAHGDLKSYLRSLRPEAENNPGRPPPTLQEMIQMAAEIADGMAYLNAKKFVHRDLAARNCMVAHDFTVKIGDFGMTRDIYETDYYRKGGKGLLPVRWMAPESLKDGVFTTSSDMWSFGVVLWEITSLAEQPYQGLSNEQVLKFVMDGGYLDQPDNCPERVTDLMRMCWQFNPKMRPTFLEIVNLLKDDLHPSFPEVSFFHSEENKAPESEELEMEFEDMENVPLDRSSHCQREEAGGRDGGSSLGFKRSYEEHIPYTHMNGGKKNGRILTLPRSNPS

Structure (SMILES) | IC50 [µM]
O=C(Nc1n[nH]c2ccc(Cc3cc(F)cc(F)c3)cc12)c1ccc(N2CCNCC2)cc1NC1CCOCC1 | 0.041
CN1CCN(c2ccc(C(=O)Nc3n[nH]c4ccc(Cc5cc(F)cc(F)c5)cc34)c(NCCF)c2)CC1 | 0.462
CN1CCC(Oc2ccc(C(=O)Nc3n[nH]c4ccc(Cc5cc(F)cc(F)c5)cc34)c(NC3CCOCC3)c2)CC1 | 0.196

System: not listed separately
Experiment: AUC (infinity) in Harlan nu/nu mouse at 10 mg/kg, iv administered as single dose by LC-MS/MS analysis
Type: ADME, organism-based
Design: dose 10 mg/kg, time infinity, route intravenous
Details: in vivo

Structure (SMILES) | AUC(0-inf) [µM·h]
O=C(Nc1n[nH]c2ccc(Cc3cc(F)cc(F)c3)cc12)c1ccc(N2CCNCC2)cc1NC1CCOCC1 | 42.2
CN1CCN(c2ccc(C(=O)Nc3n[nH]c4ccc(Cc5cc(F)cc(F)c5)cc34)c(NCCF)c2)CC1 | 24.7
CN1CCC(Oc2ccc(C(=O)Nc3n[nH]c4ccc(Cc5cc(F)cc(F)c5)cc34)c(NC3CCOCC3)c2)CC1 | 33.1

System: not listed separately
Experiment: Volume of distribution at steady state in Harlan nu/nu mouse at 10 mg/kg, iv administered as single dose by LC-MS/MS analysis
Details: in vivo

Structure (SMILES) | Vd [L/kg]
O=C(Nc1n[nH]c2ccc(Cc3cc(F)cc(F)c3)cc12)c1ccc(N2CCNCC2)cc1NC1CCOCC1 | 1.4
CN1CCN(c2ccc(C(=O)Nc3n[nH]c4ccc(Cc5cc(F)cc(F)c5)cc34)c(NCCF)c2)CC1 | 4.76
CN1CCC(Oc2ccc(C(=O)Nc3n[nH]c4ccc(Cc5cc(F)cc(F)c5)cc34)c(NC3CCOCC3)c2)CC1 | 2.62
